# From ChEMBL document CHEMBL1208683, “Insights into binding modes of adenosine A(2B) antagonists with ligand-based and receptor-based methods” (Eur J Med Chem, 2010)
# Legend:
# Adenosine receptor A2b = target: T1, Adenosine receptor A2b (Homo sapiens, UniProt P29275)
# T1 sequence (P29275 whole entry): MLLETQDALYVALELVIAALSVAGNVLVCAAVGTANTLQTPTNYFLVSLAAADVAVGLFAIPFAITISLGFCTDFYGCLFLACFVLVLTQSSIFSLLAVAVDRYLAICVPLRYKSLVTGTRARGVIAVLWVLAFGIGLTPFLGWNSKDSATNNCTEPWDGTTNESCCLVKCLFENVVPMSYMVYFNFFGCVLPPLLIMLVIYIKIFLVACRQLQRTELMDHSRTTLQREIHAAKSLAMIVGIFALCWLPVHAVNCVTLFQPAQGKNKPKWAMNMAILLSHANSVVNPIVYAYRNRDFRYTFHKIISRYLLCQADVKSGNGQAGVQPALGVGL
# Description: Antagonist activity against human adenosine A2B receptor
# Adenosine receptor A3 = target: T2, Adenosine receptor A3 (Homo sapiens, UniProt P0DMS8)
# T2 sequence (P0DMS8 whole entry): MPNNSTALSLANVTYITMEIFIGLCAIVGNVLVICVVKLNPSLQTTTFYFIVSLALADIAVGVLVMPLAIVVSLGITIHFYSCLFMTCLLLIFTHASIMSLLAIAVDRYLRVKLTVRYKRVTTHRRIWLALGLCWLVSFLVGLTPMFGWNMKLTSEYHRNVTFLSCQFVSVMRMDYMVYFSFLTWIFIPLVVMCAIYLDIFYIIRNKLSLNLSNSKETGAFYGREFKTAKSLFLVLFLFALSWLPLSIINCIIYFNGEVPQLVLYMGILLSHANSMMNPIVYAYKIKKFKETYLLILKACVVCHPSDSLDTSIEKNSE
# Description: Antagonist activity against human adenosine A3 receptor
# Adenosine receptor A2a [1] = target: T3, Adenosine receptor A2a (Homo sapiens, UniProt P29274)
# Description: (§1) Antagonist activity against human adenosine A2A receptor
# Adenosine receptor A1 [2] = target: T4, Adenosine receptor A1 (Rattus norvegicus, UniProt P25099); test: Antagonist activity against rat adenosine A1 receptor; assay type: functional
# T4 sequence (P25099 whole entry): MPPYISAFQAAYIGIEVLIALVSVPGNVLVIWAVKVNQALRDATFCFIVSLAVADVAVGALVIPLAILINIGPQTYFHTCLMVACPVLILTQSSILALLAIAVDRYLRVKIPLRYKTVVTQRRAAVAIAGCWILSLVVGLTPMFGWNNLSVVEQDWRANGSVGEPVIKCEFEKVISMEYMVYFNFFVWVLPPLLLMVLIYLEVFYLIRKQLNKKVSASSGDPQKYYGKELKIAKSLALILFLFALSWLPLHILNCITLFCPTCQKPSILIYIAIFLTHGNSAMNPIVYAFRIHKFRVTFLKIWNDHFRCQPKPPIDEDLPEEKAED
# Adenosine receptor A2a [3] = target: Adenosine receptor A2a (Rattus norvegicus, UniProt P30543); test: Antagonist activity against rat adenosine A2A receptor; assay type: functional
# Adenosine receptor A2a [4] = target: T3, Adenosine receptor A2a; remark: listed apart in the source
# Description: as §1
# Adenosine receptor A1 [5] = target: T5, Adenosine receptor A1 (Homo sapiens, UniProt P30542)
# T5 sequence (P30542 whole entry): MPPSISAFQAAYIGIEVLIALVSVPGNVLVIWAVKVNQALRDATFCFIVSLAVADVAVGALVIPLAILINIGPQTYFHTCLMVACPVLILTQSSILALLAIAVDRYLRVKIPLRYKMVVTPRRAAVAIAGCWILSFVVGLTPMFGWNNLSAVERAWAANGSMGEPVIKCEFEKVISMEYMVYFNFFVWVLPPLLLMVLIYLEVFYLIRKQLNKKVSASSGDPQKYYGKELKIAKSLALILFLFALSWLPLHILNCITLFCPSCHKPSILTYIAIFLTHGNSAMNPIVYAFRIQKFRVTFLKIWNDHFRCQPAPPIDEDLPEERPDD
# Description: Antagonist activity against human adenosine A1 receptor
# T3 sequence (P29274 whole entry): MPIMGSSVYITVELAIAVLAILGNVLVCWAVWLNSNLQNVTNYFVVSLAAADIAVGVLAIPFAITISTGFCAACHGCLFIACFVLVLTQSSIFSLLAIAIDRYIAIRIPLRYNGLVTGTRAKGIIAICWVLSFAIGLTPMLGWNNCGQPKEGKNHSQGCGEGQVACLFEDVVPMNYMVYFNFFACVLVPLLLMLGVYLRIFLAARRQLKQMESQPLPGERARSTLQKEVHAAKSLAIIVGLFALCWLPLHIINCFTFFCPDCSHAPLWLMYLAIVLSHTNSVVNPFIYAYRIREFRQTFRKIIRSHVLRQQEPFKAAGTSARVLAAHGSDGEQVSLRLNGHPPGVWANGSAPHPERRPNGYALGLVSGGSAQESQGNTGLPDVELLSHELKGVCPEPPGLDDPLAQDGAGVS
# Sequence of Adenosine receptor A2a (Rattus norvegicus, UniProt P30543) (P30543 whole entry): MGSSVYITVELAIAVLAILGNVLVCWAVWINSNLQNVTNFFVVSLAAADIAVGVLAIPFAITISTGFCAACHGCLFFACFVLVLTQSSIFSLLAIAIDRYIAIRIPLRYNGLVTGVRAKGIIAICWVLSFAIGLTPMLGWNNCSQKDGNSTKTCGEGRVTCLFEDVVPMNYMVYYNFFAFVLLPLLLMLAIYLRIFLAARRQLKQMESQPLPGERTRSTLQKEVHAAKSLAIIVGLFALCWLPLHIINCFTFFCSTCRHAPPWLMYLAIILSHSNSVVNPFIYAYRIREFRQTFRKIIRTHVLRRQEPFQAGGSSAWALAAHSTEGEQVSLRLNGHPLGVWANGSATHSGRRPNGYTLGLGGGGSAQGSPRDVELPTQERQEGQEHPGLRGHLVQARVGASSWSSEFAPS
Compound,Ki (Adenosine receptor A2b),Ki (Adenosine receptor A3),further results
Cn1c(=O)c2c(nc(-c3ccccc3)n2O)n(C)c1=O,1660 nM,> 9000 nM,Activity (Adenosine receptor A2a [1]): 12%
CCCn1c(=O)[nH]c2[nH]c(-c3ccc(S(=O)(=O)NCc4ccccc4)cc3)nc2c1=O,–,> 1000 nM,–
CCCn1c(=O)c2nc(-c3cnn(Cc4cc(C(F)(F)F)ccc4Cl)c3)[nH]c2n(CCC)c1=O,–,54 nM,–
Cn1c(=O)c2[nH]c(-c3ccc(S(=O)(=O)NCC(=O)O)cc3)nc2n(C)c1=O,–,> 10000 nM,–
COc1ccc2c(C)nc(NC3=NCC(=O)N3)nc2c1,112 nM,–,Ki (Adenosine receptor A1 [2]): 1290 nM; Ki (Adenosine receptor A2a [3]): 2400 nM
Nc1nc(-n2cncn2)c2nnn(Cc3ccccc3F)c2n1,1290 nM,2810 nM,Ki (Adenosine receptor A2a [4]): 400 nM; Ki (Adenosine receptor A1 [5]): 2960 nM
CCOc1cccc2c(C)nc(N=C(N)N)nc12,1780 nM,–,Ki (Adenosine receptor A1 [2]): 1330 nM; Ki (Adenosine receptor A2a [3]): 624 nM
